Biological target: T1, His6-TEV-PPARγ-(234-505) (Homo sapiens, UniProt P37231)
T1 construct: The His6-TEV-PPARγ-(234-505) protein for assay was expressed and purified; TEV cleavage site (N); made in house
T1 sequence (P37231 234-505): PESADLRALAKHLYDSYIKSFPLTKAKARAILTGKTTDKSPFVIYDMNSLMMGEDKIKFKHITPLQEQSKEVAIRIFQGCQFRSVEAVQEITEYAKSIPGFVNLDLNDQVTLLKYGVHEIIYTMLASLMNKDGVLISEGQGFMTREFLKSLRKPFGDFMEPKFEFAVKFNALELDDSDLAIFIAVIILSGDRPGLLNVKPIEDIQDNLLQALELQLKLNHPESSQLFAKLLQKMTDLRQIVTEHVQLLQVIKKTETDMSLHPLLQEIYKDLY
Test: TR-FRET Assay to Measure Co-R Peptide Recruitment to PPARγ
Assay type: biochemical
Details: Co-R peptide recruitment to PPARγ; read-out: TR-FRET AC50
Protocol: TR-FRET Assay to Measure Co—R Peptide Recruitment to PPARγ
The 2× detection solution contained anti-6×His-Terbium antibody (CisBio) and FITC labeled Co—R peptide (SMRT-ID2 from New England Peptide) at final concentrations of 5 and 200 nM respectively.
In these assay plates, the positive control in column 24 contained 500 nM (final) T0070907 and the negative control in column 23 contained an identical volume of DMSO. Then, 5 μL of 2+ protein working stock or controls were added to the plate and incubated for 20 minutes at room temperature. Reagents additions were performed with either a Combi (Thermo) or Mantis (Formulatory) pipetting device. The incubation was followed by addition of 5 μL of the 2× detection solution. Plates were covered, centrifuged, and incubated for an additional hour. The TR-FRET data was recorded with an Envision plate reader (Perkin Elmer), using settings recommended by Thermo Fisher. The TR-FRET signal of the positive and negative control's recruitment of FITC-Co—R peptide was used to normalize the TR-FRET signal to percent response and to determine the assay Z prime. Experiments were performed in triplicate and analyzed in GraphPad Prism 7.

| AC50 | Compound |
| --- | --- |
| > 1000 nM | CS(=O)(=O)CCN1CCN(C(=O)C2CCN(C(=O)c3cc(-c4ccncc4)[nH]n3)CC2)CC1 [1-(2-methanesulfonylethyl)-4-{1-[5-(pyridin-4-yl)-1H-pyrazole-3-carbonyl]piperidine-4-carbonyl}piperazine] |
| > 1000 nM | COc1cc(-c2cc(C(=O)N3CCC(C(=O)N[C@@H]4C[C@@H](C)Oc5ccccc54)CC3)n[nH]2)c(Cl)cn1 [1-[5-(5-chloro-2-methoxypyridin-4-yl)-1H-pyrazole-3-carbonyl]-N-[(2R,4R)-2-methyl-3,4-dihydro-2H-1-benzopyran-4-yl]piperidine-4-carboxamide] |
| > 1000 nM | O=C(NCc1ccc2c(c1)OCO2)C1CCCN(C(=O)c2cc(-c3ccncc3)[nH]n2)C1 (stereo not shown) [N-[(2H-1,3-benzodioxol-5-yl)methyl]-1-[5-(pyridin-4-yl)-1H-pyrazole-3-carbonyl]piperidine-3-carboxamide] |
| > 1000 nM | COc1cc(-c2cc(C(=O)N3CCC(C(=O)NCc4cccc(=O)[nH]4)CC3)n[nH]2)c(Cl)cn1 [1-[5-(5-chloro-2-methoxypyridin-4-yl)-1H-pyrazole-3-carbonyl]-N-[(6-oxo-1,6-dihydropyridin-2-yl)methyl]piperidine-4-carboxamide] |
| > 1000 nM | COc1ccc(NC(=O)C2CCN(C(=O)c3cc(-c4ccncc4)[nH]n3)CC2)cc1 [N-(4-methoxyphenyl)-1-[5-(pyridin-4-yl)-1H-pyrazole-3-carbonyl]piperidine-4-carboxamide] |
| > 1000 nM | COc1cc(-c2cc(C(=O)N3CCC(C(=O)N[C@@H]4CCCc5cccnc54)CC3)n[nH]2)c(Cl)cn1 [1-[5-(5-chloro-2-methoxypyridin-4-yl)-1H-pyrazole-3-carbonyl]-N-[(8R)-5,6,7,8-tetrahydroquinolin-8-yl]piperidine-4-carboxamide] |
| > 1000 nM | COC1CCC(NC(=O)C2CCN(C(=O)c3cc(-c4ccncc4)[nH]n3)CC2)CC1 (stereo not shown) [N-(4-methoxycyclohexyl)-1-[5-(pyridin-4-yl)-1H-pyrazole-3-carbonyl]piperidine-4-carboxamide] |
| > 1000 nM | COc1cc(-c2cc(C(=O)N3CCC4(C(=O)NCc5cccc(Cl)c5)CC4C3)n[nH]2)c(Cl)cn1 (stereo not shown) [3-[5-(5-chloro-2-methoxypyridin-4-yl)-1H-pyrazole-3-carbonyl]-N-[(3-chlorophenyl)methyl]-3-azabicyclo[4.1.0]heptane-6-carboxamide] |
| > 1000 nM | C[C@@H](NC(=O)C1CCN(C(=O)c2cc(-c3ccncc3)[nH]n2)CC1)c1ccccc1 [N-[(1R)-1-phenylethyl]-1-[5-(pyridin-4-yl)-1H-pyrazole-3-carbonyl]piperidine-4-carboxamide] |
| > 1000 nM | COc1cc(-c2cc(C(=O)N3CCC(C(=O)NCc4ccc(C)nc4)CC3)n[nH]2)c(Cl)cn1 [1-[5-(5-chloro-2-methoxypyridin-4-yl)-1H-pyrazole-3-carbonyl]-N-[(6-methylpyridin-3-yl)methyl]piperidine-4-carboxamide] |
| > 1000 nM | COc1cc(-c2cc(C(=O)N3CCC(C(=O)NCc4noc(C)n4)CC3)n[nH]2)c(Cl)cn1 [1-[5-(5-chloro-2-methoxypyridin-4-yl)-1H-pyrazole-3-carbonyl]-N-[(5-methyl-1,2,4-oxadiazol-3-yl)methyl]piperidine-4-carboxamide] |
| > 1000 nM | COc1cc(-c2cc(C(=O)N3CCC(C(=O)NCc4nnc5ccc(C(F)(F)F)cn45)CC3)n[nH]2)c(Cl)cn1 [1-[5-(5-chloro-2-methoxypyridin-4-yl)-1H-pyrazole-3-carbonyl]-N-{[6-(trifluoromethyl)-[1,2,4]triazolo[4,3-a]pyridin-3-yl]methyl}piperidine-4-carboxamide] |
| > 1000 nM | COc1cc(-c2cc(C(=O)N3CCC(C(=O)NCc4cnco4)CC3)n[nH]2)c(Cl)cn1 [1-[5-(5-chloro-2-methoxypyridin-4-yl)-1H-pyrazole-3-carbonyl]-N-[(1,3-oxazol-5-yl)methyl]piperidine-4-carboxamide] |
| > 1000 nM | COc1ccc(Cl)cc1CNC(=O)C1CCN(C(=O)c2cc(-c3ccncc3)[nH]n2)CC1 [N-[(5-chloro-2-methoxyphenyl)methyl]-1-[5-(pyridin-4-yl)-1H-pyrazole-3-carbonyl]piperidine-4-carboxamide] |
| > 1000 nM | COc1cc(-c2cc(C(=O)N3CCC(C(=O)NCc4c(C)nn(C)c4C)CC3)n[nH]2)c(Cl)cn1 [1-[5-(5-chloro-2-methoxypyridin-4-yl)-1H-pyrazole-3-carbonyl]-N-[(1,3,5-trimethyl-1H-pyrazol-4-yl)methyl]piperidine-4-carboxamide] |
| > 1000 nM | COc1c(C)cccc1CNC(=O)C1CCN(C(=O)c2cc(-c3ccncc3)[nH]n2)CC1 [N-[(2-methoxy-3-methylphenyl)methyl]-1-[5-(pyridin-4-yl)-1H-pyrazole-3-carbonyl]piperidine-4-carboxamide] |
| > 1000 nM | COc1cc(-c2cc(C(=O)N3CCC(C(=O)NC(C)(C)c4ccccc4)CC3)n[nH]2)c(Cl)cn1 [1-[5-(5-chloro-2-methoxypyridin-4-yl)-1H-pyrazole-3-carbonyl]-N-(2-phenylpropan-2-yl)piperidine-4-carboxamide] |
| > 1000 nM | CC1CCC(NC(=O)C2CCN(C(=O)c3cc(-c4ccnc(OC5CC5)c4)[nH]n3)CC2)CC1 (stereo not shown) [1-[5-(2-cyclopropoxypyridin-4-yl)-1H-pyrazole-3-carbonyl]-N-(4-methylcyclohexyl)piperidine-4-carboxamide] |
| > 1000 nM | CC1CCC(NC(=O)C2CCN(C(=O)c3cc(-c4ccnc(OC(F)F)c4)[nH]n3)CC2)CC1 (stereo not shown) [1-{5-[2-(difluoromethoxy)pyridin-4-yl]-1H-pyrazole-3-carbonyl}-N-(4-methylcyclohexyl)piperidine-4-carboxamide] |
| > 1000 nM | COc1cc(-c2cc(C(=O)N3CCC(C(=O)NCc4ccon4)CC3)n[nH]2)c(Cl)cn1 [1-[5-(5-chloro-2-methoxypyridin-4-yl)-1H-pyrazole-3-carbonyl]-N-[(1,2-oxazol-3-yl)methyl]piperidine-4-carboxamide] |
| > 1000 nM | O=C(NC1CCC(O)CC1)C1CCN(C(=O)c2cc(-c3ccncc3)[nH]n2)CC1 (stereo not shown) |
| > 1000 nM | COc1cc(-c2cc(C(=O)N3CC[C@H](C(=O)N[C@@H]4CN(c5ccc(C)nc5)C[C@@H]4F)CC34CC4)n[nH]2)c(F)cn1 [(7S)—N-[(3R,4S)-4-fluoro-1-(6-methylpyridin-3-yl)pyrrolidin-3-yl]-4-[5-(5-fluoro-2-methoxypyridin-4-yl)-1H-pyrazole-3-carbonyl]-4-azaspiro[2.5]octane-7-carboxamide] |
| > 1000 nM | COc1cc(-c2cc(C(=O)N3CCC(C(=O)NCC4(O)CCC4)CC3)n[nH]2)c(Cl)cn1 [1-[5-(5-chloro-2-methoxypyridin-4-yl)-1H-pyrazole-3-carbonyl]-N-[(1-hydroxycyclobutyl)methyl]piperidine-4-carboxamide] |
| > 1000 nM | COc1cc(-c2cc(C(=O)N3CCC(C(=O)NC4COC(C)(C)OC4)CC3)n[nH]2)c(Cl)cn1 [1-[5-(5-chloro-2-methoxypyridin-4-yl)-1H-pyrazole-3-carbonyl]-N-(2,2-dimethyl-1,3-dioxan-5-yl)piperidine-4-carboxamide] |

| Compound | AC50 |
| --- | --- |
| COc1cc(-c2cc(C(=O)N3C[C@H]4C[C@@H]3CC4C(=O)N[C@H]3CC[C@@](O)(C(F)(F)F)CC3)n[nH]2)c(F)cn1 (single isomer, unassigned) | > 1000 nM |
